Measurements from article PMC5218480 (PLoS ONE, 2017).

Tested on: MV-4-11 cells
Assay: Gene expression microarray analysis (Affymetrix PrimeView) and GSEA
Format: cell-based, human
Design: RFU PODN (11730768_x_at) / Fold change /veh PODN (11730768_x_at) / RFU LINC00158 (11744669_a_at) / Fold change /veh LINC00158 (11744669_a_at) / RFU DUSP10 (11751237_a_at) / Fold change /veh DUSP10 (11751237_a_at) / RFU ID3 (11757404_x_at) / Fold change /veh ID3 (11757404_x_at) / RFU PLEKHG5 (11737974_s_at) / Fold change /veh PLEKHG5 (11737974_s_at) / RFU LRRC4B (11730491_at) / Fold change /veh LRRC4B (11730491_at) / RFU GIMAP4 (11747438_a_at) / Fold change /veh GIMAP4 (11747438_a_at) / RFU KRT8 (11758183_x_at) / Fold change /veh KRT8 (11758183_x_at) / RFU CNN1 (11734310_a_at) / Fold change /veh CNN1 (11734310_a_at) / RFU VPS37D (11726825_at) / Fold change /veh VPS37D (11726825_at) / RFU C10orf10 (11716522_x_at) / Fold change /veh C10orf10 (11716522_x_at) / RFU KIR2DL2 /// KIR2DL4 /// KIR2DL5A /// KIR2DL5B /// KIR2DS1 /// KIR2DS2 /// KIR2DS3 /// KIR2DS4 /// KIR3DL3 /// KIR3DL3 /// KIR3DS1 (11738374_at) / Fold change /veh KIR2DL2 /// KIR2DL4 /// KIR2DL5A /// KIR2DL5B /// KIR2DS1 /// KIR2DS2 /// KIR2DS3 /// KIR2DS4 /// KIR3DL3 /// KIR3DL3 /// KIR3DS1 (11738374_at) / RFU C1QL1 (11718748_at) / Fold change /veh C1QL1 (11718748_at) / RFU TMPRSS4 (11747572_a_at) / Fold change /veh TMPRSS4 (11747572_a_at) / RFU HAMP (11756126_x_at) / Fold change /veh HAMP (11756126_x_at) / RFU RNFT2 (11725882_a_at) / Fold change /veh RNFT2 (11725882_a_at) / RFU NR4A2 (11747474_a_at) / Fold change /veh NR4A2 (11747474_a_at) / RFU ABCC12 (11746883_a_at) / Fold change /veh ABCC12 (11746883_a_at) / RFU TMEM136 (11760407_x_at) / Fold change /veh TMEM136 (11760407_x_at) / RFU CLDN22 /// WWC2 (11732394_at) / Fold change /veh CLDN22 /// WWC2 (11732394_at) / RFU HLA-DPB1 (11760878_x_at) / Fold change /veh HLA-DPB1 (11760878_x_at) / RFU SPINT1 (11716480_a_at) / Fold change /veh SPINT1 (11716480_a_at) / RFU GAP43 (11754022_s_at) / Fold change /veh GAP43 (11754022_s_at) / RFU A4GNT (11735810_at) / Fold change /veh A4GNT (11735810_at) / RFU PRB3 (11715151_x_at) / Fold change /veh PRB3 (11715151_x_at) / RFU TUBB4B (11761932_at) / Fold change /veh TUBB4B (11761932_at) / RFU CAPN14 (11732068_a_at) / Fold change /veh CAPN14 (11732068_a_at) / RFU TMCC2 (11721928_a_at) / Fold change /veh TMCC2 (11721928_a_at) / RFU IRGQ (11745062_a_at) / Fold change /veh IRGQ (11745062_a_at) / RFU FAM174B (11720279_a_at) / Fold change /veh FAM174B (11720279_a_at) / RFU TMPRSS4 (11748680_a_at) / Fold change /veh TMPRSS4 (11748680_a_at) / RFU FAM212B (11763350_a_at) / Fold change /veh FAM212B (11763350_a_at) / RFU PLEKHG5 (11743358_a_at) / Fold change /veh PLEKHG5 (11743358_a_at) / RFU ZSCAN30 (11745921_a_at) / Fold change /veh ZSCAN30 (11745921_a_at) / RFU CMKLR1 (11741424_a_at) / Fold change /veh CMKLR1 (11741424_a_at) / RFU LOC101060620 /// MAPK8IP1 (11723275_at) / Fold change /veh LOC101060620 /// MAPK8IP1 (11723275_at) / RFU SPTSSB (11747773_x_at) / Fold change /veh SPTSSB (11747773_x_at) / RFU PRSS12 (11739890_at) / Fold change /veh PRSS12 (11739890_at) / RFU BIN1 (11741810_x_at) / Fold change /veh BIN1 (11741810_x_at) / RFU WNT11 (11732464_a_at) / Fold change /veh WNT11 (11732464_a_at) / RFU C10orf10 (11716521_a_at) / Fold change /veh C10orf10 (11716521_a_at) / RFU C5orf56 (11738089_at) / Fold change /veh C5orf56 (11738089_at) / RFU CYB561 (11721691_x_at) / Fold change /veh CYB561 (11721691_x_at) / RFU ANKRD19P (11752326_a_at) / Fold change /veh ANKRD19P (11752326_a_at) / RFU OR2T12 /// OR2T33 /// OR2T8 (11738714_s_at) / Fold change /veh OR2T12 /// OR2T33 /// OR2T8 (11738714_s_at) / RFU VCAN (11748164_a_at) / Fold change /veh VCAN (11748164_a_at) / RFU JSRP1 (11732532_at) / Fold change /veh JSRP1 (11732532_at) / RFU KRTAP10-11 (11738290_x_at) / Fold change /veh KRTAP10-11 (11738290_x_at) / RFU MYO3A (11730013_a_at) / Fold change /veh MYO3A (11730013_a_at) / RFU EBF3 (11725865_a_at) / Fold change /veh EBF3 (11725865_a_at) / RFU CAMK2N1 (11719241_x_at) / Fold change /veh CAMK2N1 (11719241_x_at) / RFU C5orf56 (11738088_a_at) / Fold change /veh C5orf56 (11738088_a_at) / RFU OLFML3 (11715873_a_at) / Fold change /veh OLFML3 (11715873_a_at) / RFU LOC100653217 /// NTM (11731650_a_at) / Fold change /veh LOC100653217 /// NTM (11731650_a_at) / RFU MAPK11 (11762145_a_at) / Fold change /veh MAPK11 (11762145_a_at) / RFU FIZ1 (11724087_x_at) / Fold change /veh FIZ1 (11724087_x_at) / RFU OASL (11726364_x_at) / Fold change /veh OASL (11726364_x_at) / RFU SOX15 (11748057_x_at) / Fold change /veh SOX15 (11748057_x_at) / RFU CD79A (11719716_a_at) / Fold change /veh CD79A (11719716_a_at) / RFU HIST1H1D (11736915_at) / Fold change /veh HIST1H1D (11736915_at) / RFU CASKIN2 (11723855_a_at) / Fold change /veh CASKIN2 (11723855_a_at) / RFU LOC730098 (11760151_x_at) / Fold change /veh LOC730098 (11760151_x_at) / RFU OR4N2 (11742367_at) / Fold change /veh OR4N2 (11742367_at) / RFU PRRT2 (11749266_a_at) / Fold change /veh PRRT2 (11749266_a_at) / RFU SNX32 (11753110_a_at) / Fold change /veh SNX32 (11753110_a_at) / RFU CDHR5 (11726645_a_at) / Fold change /veh CDHR5 (11726645_a_at) / RFU RCAN1 (11760418_a_at) / Fold change /veh RCAN1 (11760418_a_at) / RFU FAM167A (11723789_a_at) / Fold change /veh FAM167A (11723789_a_at) / RFU FAM26E (11764081_at) / Fold change /veh FAM26E (11764081_at) / RFU ISYNA1 (11749810_s_at) / Fold change /veh ISYNA1 (11749810_s_at) / RFU ACY1 (11761880_at) / Fold change /veh ACY1 (11761880_at) / RFU 11764098_at / Fold change /veh 11764098_at / RFU SAMD14 (11745864_x_at) / Fold change /veh SAMD14 (11745864_x_at) / RFU NPB (11741838_a_at) / Fold change /veh NPB (11741838_a_at) / RFU TMPRSS6 (11731388_a_at) / Fold change /veh TMPRSS6 (11731388_a_at) / RFU KRTAP10-2 (11738614_at) / Fold change /veh KRTAP10-2 (11738614_at) / RFU ARHGAP8 /// PRR5-ARHGAP8 (11727945_x_at) / Fold change /veh ARHGAP8 /// PRR5-ARHGAP8 (11727945_x_at) / RFU KRTAP5-7 /// NADSYN1 (11734609_at) / Fold change /veh KRTAP5-7 /// NADSYN1 (11734609_at) / RFU RASL12 (11751679_a_at) / Fold change /veh RASL12 (11751679_a_at) / RFU CDKN2B (11736163_a_at) / Fold change /veh CDKN2B (11736163_a_at) / RFU PRF1 (11729649_at) / Fold change /veh PRF1 (11729649_at) / RFU, ZNF638 /// ZNF638-IT1 / Fold change vs veh, ZNF638 /// ZNF638-IT1 / RFU, PANK3 / Fold change vs veh, PANK3 / RFU, SH3YL1 / Fold change vs veh, SH3YL1 / RFU, ZEB2 / Fold change vs veh, ZEB2 / RFU, NRIP1 / Fold change vs veh, NRIP1 / RFU, PTTG1IP / Fold change vs veh, PTTG1IP / RFU, CAPN2 / Fold change vs veh, CAPN2 / RFU, MED14 / Fold change vs veh, MED14 / RFU, SNORA58 / Fold change vs veh, SNORA58 / RFU, C1orf63 / Fold change vs veh, C1orf63 / RFU, LRRFIP1 / Fold change vs veh, LRRFIP1 / RFU, NDUFAF7 / Fold change vs veh, NDUFAF7 / RFU, SLC12A2 / Fold change vs veh, SLC12A2 / RFU, IBTK / Fold change vs veh, IBTK / RFU, ESF1 / Fold change vs veh, ESF1 / Fold change vs veh, TMEM50B / RFU, TAOK1 / Fold change vs veh, TAOK1 / RFU, ACBD3 / Fold change vs veh, ACBD3 / RFU, TMA16 / Fold change vs veh, TMA16 / RFU, RWDD3 / Fold change vs veh, RWDD3 / RFU, BCAT1 / Fold change vs veh, BCAT1 / RFU, EDEM3 / Fold change vs veh, EDEM3 / RFU, TMEM33 / Fold change vs veh, TMEM33 / RFU, WDR75 / Fold change vs veh, WDR75 / RFU, AHCTF1 / Fold change vs veh, AHCTF1 / RFU, TFRC / Fold change vs veh, TFRC / RFU, ZDHHC17 / Fold change vs veh, ZDHHC17 / RFU, NOM1 / Fold change vs veh, NOM1 / RFU, ARL8B / Fold change vs veh, ARL8B / RFU, ZBTB11 / Fold change vs veh, ZBTB11 / RFU, TAMM41 / Fold change vs veh, TAMM41 / RFU, KIAA1704 /// LOC100996395 / Fold change vs veh, KIAA1704 /// LOC100996395 / RFU, ING1 / Fold change vs veh, ING1 / RFU, TRMT61B / Fold change vs veh, TRMT61B / RFU, FUBP3 / Fold change vs veh, FUBP3 / RFU, TP53 / Fold change vs veh, TP53 / RFU, TNKS2 / Fold change vs veh, TNKS2 / RFU, ZFP14 / Fold change vs veh, ZFP14 / RFU, ACTR2 / Fold change vs veh, ACTR2 / RFU, PPP3R1 / Fold change vs veh, PPP3R1 / RFU, PIK3R1 / Fold change vs veh, PIK3R1 / RFU, HNRNPA1 / Fold change vs veh, HNRNPA1 / RFU, RNF170 / Fold change vs veh, RNF170 / RFU, ZNF28 / Fold change vs veh, ZNF28 / RFU, RNGTT / Fold change vs veh, RNGTT / RFU, OGT / Fold change vs veh, OGT / RFU, BRD1 / Fold change vs veh, BRD1 / RFU, MARS / Fold change vs veh, MARS / RFU, ZNF655 / Fold change vs veh, ZNF655 / RFU, FAHD1 / Fold change vs veh, FAHD1 / RFU, BDP1 / Fold change vs veh, BDP1 / RFU, LRRCC1 / Fold change vs veh, LRRCC1 / RFU, ARID1A / Fold change vs veh, ARID1A / RFU, ZNF146 / Fold change vs veh, ZNF146 / RFU, ZNF330 / Fold change vs veh, ZNF330 / RFU, GPN3 / Fold change vs veh, GPN3 / RFU, C9orf123 / Fold change vs veh, C9orf123 / RFU, N4BP2L2 / Fold change vs veh, N4BP2L2 / RFU, ARFIP1 / Fold change vs veh, ARFIP1 / RFU, FAM179B / Fold change vs veh, FAM179B / RFU, BCL10 / Fold change vs veh, BCL10 / RFU, UHRF1BP1L / Fold change vs veh, UHRF1BP1L / RFU, BET1 / Fold change vs veh, BET1 / RFU, CNOT2 / Fold change vs veh, CNOT2 / RFU, ZNF268 / Fold change vs veh, ZNF268 / Fold change vs veh, ZNF507 / RFU, DGCR2 / Fold change vs veh, DGCR2 / RFU, WDSUB1 / Fold change vs veh, WDSUB1 / Fold change vs veh, HSP90B1 /// MIR3652 / RFU, ADSS / Fold change vs veh, ADSS / RFU, GK / Fold change vs veh, GK / RFU, ZNF148 / Fold change vs veh, ZNF148 / RFU, TAF9 / Fold change vs veh, TAF9 / RFU, SLC1A5 / Fold change vs veh, SLC1A5 / RFU, SLMO2 / Fold change vs veh, SLMO2 / RFU, ABCC4 / Fold change vs veh, ABCC4 / RFU, LOC101060439 /// RAP1B / Fold change vs veh, LOC101060439 /// RAP1B / RFU, RFX7 / Fold change vs veh, RFX7 / RFU, GTPBP10 / Fold change vs veh, GTPBP10 / RFU, CNEP1R1 / Fold change vs veh, CNEP1R1 / RFU, BIVM-ERCC5 /// ERCC5 / Fold change vs veh, BIVM-ERCC5 /// ERCC5 / RFU, ILF3 / Fold change vs veh, ILF3 / RFU 11762660_at / Fold change /veh 11762660_at / RFU VCAN (11757783_s_at) / Fold change /veh VCAN (11757783_s_at) / RFU DDX43 (11728927_at) / Fold change /veh DDX43 (11728927_at) / RFU KRT8 (11758188_x_at) / Fold change /veh KRT8 (11758188_x_at) / RFU NKD1 (11759106_at) / Fold change /veh NKD1 (11759106_at) / RFU SRD5A1 (11742802_a_at) / Fold change /veh SRD5A1 (11742802_a_at) / RFU TPSAB1 /// TPSB2 (11721975_s_at) / Fold change /veh TPSAB1 /// TPSB2 (11721975_s_at) / RFU GSTM3 (11746129_a_at) / Fold change /veh GSTM3 (11746129_a_at) / RFU IL23R (11737362_x_at) / Fold change /veh IL23R (11737362_x_at) / RFU TMEM51 (11727254_a_at) / Fold change /veh TMEM51 (11727254_a_at) / RFU PIWIL2 (11732686_x_at) / Fold change /veh PIWIL2 (11732686_x_at) / RFU ORM1 (11744905_x_at) / Fold change /veh ORM1 (11744905_x_at) / RFU CCDC152 (11743942_at) / Fold change /veh CCDC152 (11743942_at) / RFU ECM1 (11717891_a_at) / Fold change /veh ECM1 (11717891_a_at) / RFU IL23R (11748794_a_at) / Fold change /veh IL23R (11748794_a_at) / RFU TNFAIP8L3 (11732012_x_at) / Fold change /veh TNFAIP8L3 (11732012_x_at) / RFU MBOAT4 (11741988_at) / Fold change /veh MBOAT4 (11741988_at) / RFU 11764193_at / Fold change /veh 11764193_at / RFU TMEM53 (11763286_at) / Fold change /veh TMEM53 (11763286_at) / RFU MAGEB2 (11727129_at) / Fold change /veh MAGEB2 (11727129_at) / RFU TMEM200A (11744735_a_at) / Fold change /veh TMEM200A (11744735_a_at) / RFU CCDC152 (11751479_a_at) / Fold change /veh CCDC152 (11751479_a_at) / RFU FAM211A (11726209_a_at) / Fold change /veh FAM211A (11726209_a_at) / RFU RGS16 (11746705_a_at) / Fold change /veh RGS16 (11746705_a_at) / RFU VCAN (11755009_s_at) / Fold change /veh VCAN (11755009_s_at) / RFU RHOB (11743442_s_at) / Fold change /veh RHOB (11743442_s_at) / RFU RGS16 (11720943_a_at) / Fold change /veh RGS16 (11720943_a_at) / RFU RGS16 (11720944_at) / Fold change /veh RGS16 (11720944_at) / RFU, VPS4B / Fold change vs veh, VPS4B / RFU, CREB1 / Fold change vs veh, CREB1 / RFU, DNAJC13 / Fold change vs veh, DNAJC13 / RFU, GNAQ / Fold change vs veh, GNAQ / RFU, CDK5R1 / Fold change vs veh, CDK5R1 / RFU, ZRANB3 / Fold change vs veh, ZRANB3 / RFU, CUL4A / Fold change vs veh, CUL4A / RFU, CCNY / Fold change vs veh, CCNY / RFU, UFL1 / Fold change vs veh, UFL1 / RFU, COG3 / Fold change vs veh, COG3 / RFU, DIAPH2 / Fold change vs veh, DIAPH2 / RFU, SKA2 / Fold change vs veh, SKA2 / RFU, AFF3 / Fold change vs veh, AFF3 / RFU, LMF1 / Fold change vs veh, LMF1 / RFU, IPO11 / Fold change vs veh, IPO11 / RFU, DFFB / Fold change vs veh, DFFB / RFU, FOXP1 / Fold change vs veh, FOXP1 / RFU, CARD8 / Fold change vs veh, CARD8 / RFU, STRN3 / Fold change vs veh, STRN3 / RFU, ADK / Fold change vs veh, ADK / RFU, RASSF2 / Fold change vs veh, RASSF2 / RFU, WIPF1 / Fold change vs veh, WIPF1 / RFU, LARP1B / Fold change vs veh, LARP1B / RFU, RASA1 / Fold change vs veh, RASA1 / RFU, RB1 / Fold change vs veh, RB1 / RFU, PPFIA1 / Fold change vs veh, PPFIA1 / RFU, MAT2A / Fold change vs veh, MAT2A / RFU, CCT5 / Fold change vs veh, CCT5 / RFU, WDR92 / Fold change vs veh, WDR92 / RFU, CUX1 / Fold change vs veh, CUX1 / RFU, TTC7A / Fold change vs veh, TTC7A / RFU, TMEM135 / Fold change vs veh, TMEM135 / RFU, DEPTOR / Fold change vs veh, DEPTOR / RFU, CPM / Fold change vs veh, CPM / RFU, DNAJB6 / Fold change vs veh, DNAJB6 / RFU, CACNA2D3 / Fold change vs veh, CACNA2D3 / RFU, DTX4 / Fold change vs veh, DTX4 / RFU, TFCP2 / Fold change vs veh, TFCP2 / RFU, GMCL1 /// GMCL1P1 / Fold change vs veh, GMCL1 /// GMCL1P1 / RFU, AEBP2 / Fold change vs veh, AEBP2 / RFU, SNHG1 /// SNORD22 /// SNORD25 /// SNORD26 /// SNORD27 /// SNORD28 /// SNORD29 /// SNORD31 / Fold change vs veh, SNHG1 /// SNORD22 /// SNORD25 /// SNORD26 /// SNORD27 /// SNORD28 /// SNORD29 /// SNORD31 / Fold change (Aza/veh), C12orf56 (ProbeSet 11735607_a_at) / Fold change (ACY-1035/veh), C12orf56 (ProbeSet 11735607_a_at) / Fold change (Aza/veh), FGFR1OP (ProbeSet 11751329_s_at) / Fold change (ACY-1035/veh), FGFR1OP (ProbeSet 11751329_s_at) / Fold change (Aza/veh), VPS36 (ProbeSet 11739960_a_at) / Fold change (ACY-1035/veh), VPS36 (ProbeSet 11739960_a_at) / RFU SYPL1 (11715823_x_at) / Fold change /veh SYPL1 (11715823_x_at) / RFU IGFBP7 (11715501_s_at) / Fold change /veh IGFBP7 (11715501_s_at) / RFU REEP3 (11722064_at) / Fold change /veh REEP3 (11722064_at) / RFU IGLL1 (11728026_x_at) / Fold change /veh IGLL1 (11728026_x_at): dose or concentration left out as unconfirmed
Conditions: ProbeSet 11715478_a_at; LIST B

Nc1ncn([C@@H]2O[C@H](CO)[C@@H](O)[C@H]2O)c(=O)n1 [azacitidine]
RFU, TFRC: 131.21 RFU
